The text below walks through data of ChEMBL document CHEMBL1140033 (J Med Chem, 2008).

The source made the active and inactive calls. No cut-off for these calls is given here.

In one experiment the target is Rhodopsin (Bos taurus) (UniProt P02699). As to the kind of experiment: Binding affinity to photoactivated rhodopsin in bovine retinal rod outer-segment membranes assessed as induction of extra receptor MII state stabilization at 250 uM by UV/visible difference spectroscopy.
Chain of Rhodopsin (Bos taurus) (P02699 whole entry): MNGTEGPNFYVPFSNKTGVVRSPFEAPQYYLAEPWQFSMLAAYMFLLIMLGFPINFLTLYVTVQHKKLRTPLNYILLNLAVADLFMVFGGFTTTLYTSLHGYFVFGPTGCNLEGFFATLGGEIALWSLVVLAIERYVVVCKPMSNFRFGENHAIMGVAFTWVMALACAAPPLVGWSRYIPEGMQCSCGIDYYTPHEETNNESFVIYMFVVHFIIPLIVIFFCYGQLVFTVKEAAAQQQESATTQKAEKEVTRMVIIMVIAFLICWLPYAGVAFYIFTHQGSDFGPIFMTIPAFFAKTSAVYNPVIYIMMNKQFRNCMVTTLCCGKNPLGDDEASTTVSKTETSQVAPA
As to `C[C@]12CC[C@H]3[C@@H](CCC4=CC(=O)CC[C@@]43C)[C@@H]1CC[C@@H]2CCOS(=O)(=O)c1ccc(Br)cc1`, the outcome was Active.
For `CC1(C)CC[C@]2(C(=O)O)CC[C@]3(C)C(=CC[C@@H]4[C@@]5(C)CC[C@H](O)C(C)(C)[C@@H]5CC[C@]43C)[C@@H]2C1`, the result was Active.
Consider `C[C@H]1[C@H](C)CC[C@]2(C(=O)O)CC[C@]3(C)C(=CC[C@@H]4[C@@]5(C)CC[C@H](O)C(C)(C)[C@@H]5CC[C@]43C)[C@H]12`, for which the result was Active.
Same read-out and setting: the same measure for `CC1(C)CC[C@]2(C(=O)O)CC[C@]3(C)C(=CC[C@@H]4[C@@]5(C)C[C@H](O)[C@H](O)[C@@](C)(C(=O)O)[C@@H]5CC[C@]43C)[C@@H]2C1`: “Active”.
For the compound `CC1(C)[C@@H](O)CC[C@]2(C)[C@H]3C(=O)C=C4C5C[C@@](C)(C(=O)O)CC[C@]5(C)CC[C@@]4(C)[C@]3(C)CC[C@@H]12` (single isomer, unassigned), the result was Active.
Still for that read-out and setting: the same measure for `CC1(C)[C@@H](O)CC[C@]2(C)[C@H]3C(=O)C=C4[C@@H]5C[C@@](C)(C(=O)O)CC[C@]5(C)CC[C@@]4(C)[C@]3(C)CC[C@@H]12`: “Active”; for `C[C@]12CCC(=O)C=C1CC[C@@H]1[C@@H]2[C@@H](O)C[C@@]2(C)[C@H]1CC[C@]2(O)[C@@H](O)CO`: “Active”.

In the next experiment the target is T1, Rhodopsin (Bos taurus, UniProt P02699). As to the kind of experiment: Binding affinity to photoactivated rhodopsin in bovine retinal rod outer-segment membranes assessed as induction of extra receptor MII state stabilization by UV/visible difference spectroscopy.
T1 sequence (P02699 whole entry): as above
As to `C[C@H]1[C@H](C)CC[C@]2(C(=O)O)CC[C@]3(C)C(=CC[C@@H]4[C@@]5(C)C[C@@H](O)[C@H](O)[C@@](C)(CO)[C@@H]5[C@H](O)C[C@]43C)[C@H]12` [MADECASSIC ACID], the concentration for a half-maximal effect (EC50) (usually the concentration at which the effect is half-maximal) stood at 120 µM.

The target of the next experiment is T1, Rhodopsin. As to the kind of experiment: Inhibition of bovine retinal rod outer-segment photoactivated rhodopsin-transducer interaction by transducer release assay.
`C[C@H]1[C@H](C)CC[C@]2(C(=O)O)CC[C@]3(C)C(=CC[C@@H]4[C@@]5(C)C[C@@H](O)[C@H](O)[C@@](C)(CO)[C@@H]5[C@H](O)C[C@]43C)[C@H]12` [MADECASSIC ACID]: half-maximal inhibition (IC50) required 180 µM.
